The subject of test [1] is APP. As to the kind of experiment: APP level in cultured rat neurons and astrocytes. The test is classed as cell-based, wistar rat. The settings on record: memantine 5 μM, donepezil 10 μM, docosahexaenoic acid 10 μM; for Fold reduction in APP: metal mixture-induced, rat astrocytes and neurons, α-tocopherol 10 μM; for effect on levels of APP in the cellular model of AD: Vitamin E 10 μM. Here is the method: (§1) The pregnant wistar rats were sacrificed by cervical dislocation and the embryos were removed on the 16th day of gestation. The embryonic brain tissues were mechanically dissociated into individual cells in dissection media containing Glucose (1M), sucrose (1 M), HEPES Buffer (1M) and Hank's salt (1×). The resulting cells were centrifuged (1,500 rpm, 5 min), resuspended in NEUROBASAL medium containing B-27 supplement (Invitrogen, Carlsbad, Calif.), L-glutamine (0.5 mM), penicillin (100 U/ml) and streptomycin (100 μg/ml) and plated into 60 mm dishes. The culture media was changed every 2 days.
(§2) The astrocytes from rat brain were isolated and cultured. Briefly, prefrontal cortices of 1-day-old wistar rats were dissected out and digested with trypsin for 10 min at 37° C. A single cell suspension was obtained by triturating, and the cells were seeded onto poly-L-lysine (100 μg/ml)-coated plates. The cultures were maintained in DMEM/F12 with 10% heat-inactivated fetal bovine serum, 100 U/ml penicillin, and […] streptomycin. The confluent cells were rinsed twice with serum-free media and then detached with 0.25% trypsin with ethylenediaminetetraacetic acid and sub-cultured.
(§3) The astrocytes and neurons were grown to 80% confluence, pre-incubated in reduced serum (0.5% fetal bovine serum [FBS]) medium for 2 h, and then treated with a mixture of As, Cd, and Pb (Group 1 and 2, Table 2 for neurons, and Table 3 for astrocytes) in the form of NaAsO2, CdCl2 and Pb(C2H3O2)2, respectively in Milli Q water for 16 h, and incubated in a humidified tissue culture incubator at 37° C. with 5% CO2-95% air. The NaAsO2, and CdCl2 readily dissolved in water, while Pb(C2H3O2)2 was dissolved by adding 0.043% acetic acid in water. To identify the synergistic nature, the astrocytes and neurons were treated with metal mixture as well as individual metals (Group 1-5 of Table 2 for neurons, and Table 3 for astrocytes).
(§4) The astrocytes and neurons were treated, washed with PBS and suspended in 100 μl of CelLytic™ MT Cell Lysis Reagent protease inhibitor cocktail (a mixture of 4-(2-aminoethyl)benzenesulfonyl fluoride, pepstatinA, E-64, bestatin, leupeptin, and aprotinin)] and kept on ice for 20 min. The cells were homogenized using a Teflon homogenizer and centrifuged at 15,000 rpm for 30 min at 4° C., and the supernatant was collected. SDS-PAGE and western blotting was done with APP (1:1000), Aβ-40 (1:1000), Aβ-42 (1:1000), IL-1α(1:1000), IL-1β (1:1000) and IL-1R1. […] The samples were detected by chemiluminescence with super signal west femto max substrate. Relative expression of each protein was determined by densitometric quantification of blots using VersaDoc Gel Imaging System (BioRad, Hercules, CF). […]

The subject of another test is Aβ. As to the kind of experiment: Aβ level in cultured rat neurons and astrocytes. The test is classed as cell-based, wistar rat. The settings on record: memantine 5 μM, donepezil 10 μM, docosahexaenoic acid 10 μM; for Fold reduction in Aβ: metal mixture-induced, rat astrocytes and neurons, α-tocopherol 10 μM; for effect on levels of Aβ in the cellular model of AD: Vitamin E 10 μM. Here is the method:
as §1, §2, §3, §4

The test system of test [2] is APP. Briefly: APP level in rat brain cortex and hippocampus, western blotting. The class given is in vivo, wistar rat. Here is the method: (§5) All animal-handling procedures were carried out in accordance with the current regulations of the Indian Institute of Toxicology Research Animal Ethics Committee, and with its prior approval for using the animals. The pregnant female wistar rats were housed in a 12-h […] cycle environment with ad libitum diet and water. The rats were divided into six groups (n=30 per group), gavage-treated with the metal mixture (Table 1). The metal mixture treatment was at two concentrations (1× and 10×; Groups 1-3, Table 1) for dose-dependent study. To identify the synergistic nature, the animals were treated in mixture as well as individually with the metals (Group 1-6 of Table 1). The heavy metals were As, Cd and Pb, fed in the form of NaAsO2, CdCl2 and Pb(C2H3O2)2, respectively, in Milli Q water. The NaAsO2, and CdCl2 readily dissolved in water, while Pb(C2H3O2)2 was dissolved by adding 0.043% acetic acid in water. The dams (pregnant rats and lactating mother rats) were daily treated with the metals in water from gestation day 5 (G-05) until the pups weaned (postnatal day-21, P-21). From P-22, the postnatal rats were directly treated with the metals until P-90. The tissues were collected at P-24, P-60 or P-90. The male rats were selected for the study, and rats from separate litters served as independent subjects.
(§6) Tissues of the cerebral cortex and hippocampus from five to seven postnatal wistar rats were harvested, snap-frozen in liquid nitrogen, and stored at −80° C. until further investigation. SDS-PAGE and western blotting was performed with APP (1:1000), Aβ-40 (1:1000), Aβ-42 (1:1000), APP-CTF-β (1:1000), presenilin (1:1000), IL-1α (1:1000), IL-1β (1:1000) and IL-1R1 (1:1000), RAGE (1:1000) and pGP (1:1000). […] The samples were detected by chemiluminescence with super signal west femto max substrate. Relative expression of each protein was determined by densitometric quantification of blots using VersaDoc Gel Imaging System (BioRad, Hercules, CF). […]

The test system of the next test is Aβ-42. Briefly: Aβ-42 level in rat brain cortex and hippocampus, western blotting. The class given is in vivo, wistar rat. Here is the method: as §5, §6
A general note: In western blotting, separated proteins are transferred to a membrane and probed.

In the next test the test system is Aβ-40. Briefly: Aβ1-40 level in rat cortex and hippocampus, ELISA. The test is classed as in vivo, wistar rat. Here is the method:
as §5

[3] abbreviates: memantine 10 mg/kg body weight, donepezil 1.5 mg/kg body weight.
Where [4] appears, read: metal mixture-induced, rat brain, two week treatment, memantine 10 mg/kg, donepezil 1.5 mg/kg with 10X-MM in P-90 rats.
The mark [5] stands for this setting: hippocampal insertion, once at P-90 in 10X-MM-treated rats, dissected after 10 days.

The values that follow come from patent US20160081312A1, “MODEL OF ALZHEIMER'S DISEASE” (priority 2013, published 2016).

On to `CC/C=C\C/C=C\C/C=C\C/C=C\C/C=C\C/C=C\CCC(=O)O` [Docosahexaenoic acid], for which the “Fold reduction in APP” value in the test with APP [1] turned out to be 1.25 ± 0.0265 fold. Further, the “Fold reduction in Aβ” value in the test with Aβ was found to be 2.3 ± 0.0853 fold.
Consider `CC12CC3CC(C)(C1)CC(N)(C3)C2` [Memantine], for which, in the test on APP [1], the “effect on levels of APP in the cellular model of AD” value was “suppressed” and the “Fold reduction in APP” value worked out at 1.3 ± 0.0392 fold. For the same molecule, in the test on APP [2] (setting [3]), the “effect on APP in the non-transgenic wistar rat model of AD” value is recorded as “suppress”. The “Fold reduction in APP” value in the test with APP [2] (setting [4]) was determined as 1.69 ± 0.0510 fold. In the test with Aβ-42 (setting [3]), the “effect on Aβ1-42 in the non-transgenic wistar rat model of AD” value is “suppress”. Moreover, in the test with Aβ-42 (setting [4]), the “fold reduction in Aβ-42” value was 2.42 ± 0.0143 fold. Moreover, in the test with Aβ-40 (setting [3]), the “effect on Aβ1-40 in the non-transgenic wistar rat model of AD” value was “suppress”. In the test with Aβ-40 (setting [4]), the “fold reduction in Aβ-40” value is 2.54 ± 0.0099 fold. For the same molecule, in the test on Aβ, the “effect on levels of Aβ in the cellular model of AD” value is recorded as “suppressed” and the “Fold reduction in Aβ” value is listed as 1.4 ± 0.052 fold.
On to `Cc1c(C)c2c(c(C)c1O)CC[C@@](C)(CCC[C@H](C)CCC[C@H](C)CCCC(C)C)O2` [α-tocopherol], for which the “effect on levels of APP in the cellular model of AD” value in the test on APP [1] is “suppressed”. In addition, in the test with Aβ, the “effect on levels of Aβ in the cellular model of AD” value is reported as “suppressed”.

B1: IL1-Ra: Rat recombinant IL-1 receptor antagonist, R&D systems (protein, UniProt P25086 27-178, looked up)
Interleukin-1 receptor …: HPAGKRPCKMQAFRIWDTNQKTFYLRNNQLIAGYLQGPNTKLEEKIDMVPIDFRNVFLGIHGGKLCLSCVKSGDDTKLQLEEVNITDLNKNKEEDKRFTFIRSETGPTTSFESLACPGWFLCTTLEADHPVSLTNTPKEPCTVTKFYFQEDQ
For the molecule B1, the “effect on APP in As, Cd and Pb-mixture treated rat brain” value with APP [2] (setting [5]) is reported as “suppressed”. Further, in the test with Aβ-42 (setting [5]), the “effect on Aβ1-42 in As, Cd and Pb-mixture treated rat brain” value is on record as “suppressed”.
